# Measurements from US11324728B2, “Dosing regimens for the treatment of fungal infections” (Seren Pharmaceuticals Inc., priority 2017, dated 2022).
# How the values were obtained:
# Assay type in all cases: in vivo, human
# [1] = tested on: onychomycosis of the toenail; assay: Phase II clinical study: changes over time in efficacy of the target nail (turbidity area ratio, clinical cure, relapse/reinfection); details: 400 mg, PPS
# Protocol: (§1) A Phase II clinical pharmacology study was conducted in subjects with onychomycosis of the toenail. The study investigated the pharmacokinetics, efficacy and safety of three different dosing regimens of fosravuconazole. […] The three treatment groups were as follows: • a.
# (§2) The efficacy endpoints were: (1) overall clinical efficacy; (2) changes over time in efficacy; (3) confirmation of elements of dermatophytes by direct microscopy; and (4) results of identification of dermatophytes by the polymerase chain reaction (PCR) method.
# fungal elements = assay: Mycological cure: search for fungal elements by direct microscopy; details: PPS
# Protocol: as §1, §2
# At screening, fungal elements were found by direct microscopy in all treatment groups.
# [2] = Safety: adverse events and laboratory tests
# Protocol: as §1
# The safety endpoints were: (1) adverse events (AEs); (2) adverse reactions; and (3) laboratory tests.
smiles,measurement,setting,value
"C[C@@H](c1nc(-c2ccc(C#N)cc2)cs1)[C@@](Cn1cncn1)(OCOP(=O)(O)O)c1ccc(F)cc1F [fosravuconazole, 4-[2-[(1R,2R)-2-(2,4-difluorophenyl)-1-methyl-2-[(phosphonooxy)methoxy]-3-(1H-1,2,4-triazol-1-yl)propyl]-4-thiazolyl]benzo-nitrile]","turbidity area ratio regarding the target nail, Mean",[1]; Week 16,40.6%
same,"turbidity area ratio regarding the target nail, Median",[1]; Week 16,41.0%
same,"turbidity area ratio regarding the target nail, Mean",[1]; Week 20,31.1%
same,"turbidity area ratio regarding the target nail, Median",[1]; Week 20,29.0%
same,"turbidity area ratio regarding the target nail, Mean",[1]; Week 24,25.7%
same,"turbidity area ratio regarding the target nail, Median",[1]; Week 24,20.0%
same,"turbidity area ratio regarding the target nail, Mean",[1]; Week 28,18.3%
same,"turbidity area ratio regarding the target nail, Median",[1]; Week 28,16.0%
same,"turbidity area ratio regarding the target nail, Mean",[1]; Week 32,14.9%
same,"turbidity area ratio regarding the target nail, Median",[1]; Week 32,12.0%
same,"turbidity area ratio regarding the target nail, Mean",[1]; Week 36,13.5%
same,"turbidity area ratio regarding the target nail, Median",[1]; Week 36,9.0%
same,"turbidity area ratio regarding the target nail, Mean",[1]; Week 40,11.8%
same,"turbidity area ratio regarding the target nail, Median",[1]; Week 40,6.0%
same,"turbidity area ratio regarding the target nail, Mean",[1]; Week 44,11.9%
same,"turbidity area ratio regarding the target nail, Median",[1]; Week 44,6.0%
same,"turbidity area ratio regarding the target nail, Mean",[1]; Week 48,12.7%
same,"turbidity area ratio regarding the target nail, Median",[1]; Week 48,8.0%
same,Absence of fungal elements by direct microscopy (%),"fungal elements; 100 mg group, At screening",(0.0) %
same,"Absence of fungal elements by direct microscopy, subjects","fungal elements; 100 mg group, At screening",0
same,Presence of fungal elements by direct microscopy (%),"fungal elements; 100 mg group, At screening",(100.0) %
same,"Presence of fungal elements by direct microscopy, subjects","fungal elements; 100 mg group, At screening",28
same,Absence of fungal elements by direct microscopy (%),"fungal elements; 100 mg group, Week 12",(33.3) %
same,"Absence of fungal elements by direct microscopy, subjects","fungal elements; 100 mg group, Week 12",9
same,Presence of fungal elements by direct microscopy (%),"fungal elements; 100 mg group, Week 12",(16.7) %
same,"Presence of fungal elements by direct microscopy, subjects","fungal elements; 100 mg group, Week 12",18
same,Absence of fungal elements by direct microscopy (%),"fungal elements; 100 mg group, Week 24",(48.0) %
same,"Absence of fungal elements by direct microscopy, subjects","fungal elements; 100 mg group, Week 24",12
same,Presence of fungal elements by direct microscopy (%),"fungal elements; 100 mg group, Week 24",(52.0) %
same,"Presence of fungal elements by direct microscopy, subjects","fungal elements; 100 mg group, Week 24",13
same,"Absence of fungal elements by direct microscopy, subjects","fungal elements; 100 mg group, Week 48",18
same,Presence of fungal elements by direct microscopy (%),"fungal elements; 100 mg group, Week 48",(28.0) %
same,"Presence of fungal elements by direct microscopy, subjects","fungal elements; 100 mg group, Week 48",7
same,Absence of fungal elements by direct microscopy (%),"fungal elements; 200 mg group, At screening",(0.0) %
same,"Absence of fungal elements by direct microscopy, subjects","fungal elements; 200 mg group, At screening",0
same,Presence of fungal elements by direct microscopy (%),"fungal elements; 200 mg group, At screening",(100.0) %
same,"Presence of fungal elements by direct microscopy, subjects","fungal elements; 200 mg group, At screening",27
same,Absence of fungal elements by direct microscopy (%),"fungal elements; 200 mg group, Week 12",(50.0) %
same,"Absence of fungal elements by direct microscopy, subjects","fungal elements; 200 mg group, Week 12",13
same,Presence of fungal elements by direct microscopy (%),"fungal elements; 200 mg group, Week 12",(50.0) %
same,"Presence of fungal elements by direct microscopy, subjects","fungal elements; 200 mg group, Week 12",13
same,Absence of fungal elements by direct microscopy (%),"fungal elements; 200 mg group, Week 24",(48.0) %
same,"Absence of fungal elements by direct microscopy, subjects","fungal elements; 200 mg group, Week 24",12
same,Presence of fungal elements by direct microscopy (%),"fungal elements; 200 mg group, Week 24",(52.0) %
same,"Presence of fungal elements by direct microscopy, subjects","fungal elements; 200 mg group, Week 24",13
same,"Absence of fungal elements by direct microscopy, subjects","fungal elements; 200 mg group, Week 48",8
same,Presence of fungal elements by direct microscopy (%),"fungal elements; 200 mg group, Week 48",(63.6) %
same,"Presence of fungal elements by direct microscopy, subjects","fungal elements; 200 mg group, Week 48",14
same,Absence of fungal elements by direct microscopy (%),"fungal elements; 400 mg group, At screening",(0.0) %
same,"Absence of fungal elements by direct microscopy, subjects","fungal elements; 400 mg group, At screening",0
same,Presence of fungal elements by direct microscopy (%),"fungal elements; 400 mg group, At screening",(100.0) %
same,"Presence of fungal elements by direct microscopy, subjects","fungal elements; 400 mg group, At screening",33
same,Absence of fungal elements by direct microscopy (%),"fungal elements; 400 mg group, Week 12",(19.4) %
same,"Absence of fungal elements by direct microscopy, subjects","fungal elements; 400 mg group, Week 12",6
same,Presence of fungal elements by direct microscopy (%),"fungal elements; 400 mg group, Week 12",(80.6) %
same,"Presence of fungal elements by direct microscopy, subjects","fungal elements; 400 mg group, Week 12",25
same,Absence of fungal elements by direct microscopy (%),"fungal elements; 400 mg group, Week 24",(45.2) %
same,"Absence of fungal elements by direct microscopy, subjects","fungal elements; 400 mg group, Week 24",14
same,Presence of fungal elements by direct microscopy (%),"fungal elements; 400 mg group, Week 24",(54.8) %
same,"Presence of fungal elements by direct microscopy, subjects","fungal elements; 400 mg group, Week 24",17
same,"Absence of fungal elements by direct microscopy, subjects","fungal elements; 400 mg group, Week 48",17
same,Presence of fungal elements by direct microscopy (%),"fungal elements; 400 mg group, Week 48",(37.0) %
same,"Presence of fungal elements by direct microscopy, subjects","fungal elements; 400 mg group, Week 48",10
same,AEs resulting in discontinuation of the study treatment,[2]; 100 mg (once daily dose) group,1 subject
same,AST or ALT elevated to Grade 2 after the start of study treatment,[2]; 100 mg (once daily dose) group,2 subjects
same,Moderate AEs,[2]; 100 mg (once daily dose) group,3 subjects
same,incidence of AEs,[2]; 100 mg (once daily dose) group,89.7%
same,new AE derived from fungal infection,[2]; 100 mg (once daily dose) group,no new AE derived from fungal infection
same,AST or ALT elevated to Grade 2 after the start of study treatment,[2]; 200 mg (pulse treatment) group,1 subject
same,Moderate AEs,[2]; 200 mg (pulse treatment) group,12 subjects
same,incidence of AEs,[2]; 200 mg (pulse treatment) group,64.5%
same,AEs resulting in discontinuation of the study treatment,[2]; 400 mg (pulse treatment) group,4 subjects
same,AST or ALT elevated to Grade 2 after the start of study treatment,[2]; 400 mg (pulse treatment) group,1 subject
same,Moderate AEs,[2]; 400 mg (pulse treatment) group,12 subjects
same,incidence of AEs,[2]; 400 mg (pulse treatment) group,85.3%
same,tinea pedis,[2]; 400 mg (pulse treatment) group,2 subjects
same,tolerability,[2]; all dosing groups,well-tolerated
same,death or other serious AEs,[2]; any of the treatment groups,No death or other serious AEs occurred
same,AST or ALT elevated to Grade 2 after the start of study treatment,"[2]; in total, all groups",4 subjects
